In patent US10954193B2 (Vanderbilt University, priority 2013, dated 2021):
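Further: displacement of labeled Bak peptide read by fluorescence anisotropy, 10-point threefold dilutions from 20 µM top dose in 5% DMSO, 90 min incubation at room temperature.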

These molecules were tested against recombinant Mcl-1 (residues 172-327) (Homo sapiens (Human), UniProt Q07820) (assay: Bak peptide binding assay, fluorescence polarization anisotropy competition (FITC-Bak), Mcl-1). Details: not given.
Sequence of recombinant Mcl-1 (residues 172-327) (Q07820 172-327): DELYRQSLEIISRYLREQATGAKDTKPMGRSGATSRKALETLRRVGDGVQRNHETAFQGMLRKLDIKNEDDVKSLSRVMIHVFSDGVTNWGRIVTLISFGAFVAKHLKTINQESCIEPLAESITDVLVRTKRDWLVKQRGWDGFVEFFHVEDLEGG
Molecule Cc1cc(OCCCc2cn(CCC(=O)NS(=O)(=O)c3ccccc3)c3cc(Cl)ccc23)cc(C)c1Cl [Example 37, 3-(6-chloro-3-(3-(4-chloro-3,5-dimethylphenoxy)propyl)-1H-indol-1-yl)-N-(phenylsulfonyl)propanamide] has a Ki of 101 to 299 nM.

Same assay, conditions: Table 3, binned ranges; FITC-Bak peptide 10 nM, Mcl-1 14 nM; read-out: Ki for inhibition of Mcl-1
In the case of O=C(O)Cn1cc(CCCOc2cccc3ccccc23)c2ccc(Cl)cc21 [Example 8, 2-(6-chloro-3-(3-(naphthalen-1-yloxy)propyl)-1H-indol-1-yl)acetic acid], the Ki is reported as 1000 to 9990 nM. With Cc1cc(OCCCc2c(C)n(Cc3cccc(C(=O)NS(=O)(=O)c4ccccc4)c3)c3c(-c4c(C)nn(C)c4C)cccc23)cc(C)c1Cl [Example 127, 3-((3-(3-(4-chloro-3,5-dimethylphenoxy)propyl)-2-methyl-7-(1,3,5-trimethyl-1H-pyrazol-4-yl)-1H-indol-1-yl)methyl)-N-(phenylsulfonyl)benzamide] the Ki was ≤ 100 nM. In the case of O=C(O)CCn1cc(CCCOc2cccc3ccccc23)c2c(Cl)cccc21 [Example 16, 3-(4-chloro-3-(3-(naphthalen-1-yloxy)propyl)-1H-indol-1-yl)propanoic acid], the Ki is reported as 1000 to 9990 nM. For Cc1cc(OCCCc2c(C(F)(F)F)n(CC(=O)N3CCN(CC(=O)O)CC3)c3c(-c4c(C)nn(C)c4C)cccc23)cc(C)c1Cl [Example 121, 2-(4-(2-(3-(3-(4-chloro-3,5-dimethylphenoxy)propyl)-2-(trifluoromethyl)-7-(1,3,5-trimethyl-1H-pyrazol-4-yl)-1H-indol-1-yl)acetyl)piperazin-1-yl)acetic acid], the Ki was ≤ 100 nM. Cc1cc(OCCCc2c(C(F)(F)F)n(Cc3cccc(C(=O)O)c3)c3c(-c4c(C)nn(C)c4C)cccc23)cc(C)c1Cl [Example 123, 3-((3-(3-(4-chloro-3,5-dimethylphenoxy)propyl)-2-(trifluoromethyl)-7-(1,3,5-trimethyl-1H-pyrazol-4-yl)-1H-indol-1-yl)methyl)benzoic acid] was tested, and the Ki was ≤ 100 nM. Work on O=C(O)Cc1cn(CCCOc2ccc3ccccc3c2)c2ccccc12 [Example 2, 2-(1-(3-(naphthalen-2-yloxy)propyl)-1H-indol-3-yl)acetic acid] yielded a Ki of 10000 to 50000 nM. COc1ccc(Oc2ccc(S(=O)(=O)NC(=O)CCn3cc(CCCOc4cc(C)c(Cl)c(C)c4)c4ccc(Cl)cc43)cc2)cc1 [Example 41, 3-(6-chloro-3-(3-(4-chloro-3,5-dimethylphenoxy)propyl)-1H-indol-1-yl)-N-((4-(4-methoxyphenoxy)phenyl)sulfonyl)propanamide] showed a Ki of 101 to 299 nM. Cc1cc(OCCCc2c(C)n(CCC(=O)NS(=O)(=O)c3ccc([N+](=O)[O-])cc3)c3c(-c4c(C)nn(C)c4C)cccc23)cc(C)c1Cl [Example 93, 3-(3-(3-(4-chloro-3,5-dimethylphenoxy)propyl)-2-methyl-7-(1,3,5-trimethyl-1H-pyrazol-4-yl)-1H-indol-1-yl)-N-((4-nitrophenyl)sulfonyl)propanamide] was tested, and the Ki was ≤ 100 nM. For Cc1cc(OCCCc2c(C)n(Cc3cccc(C(=O)NS(=O)(=O)c4ccncc4)c3)c3c(-c4c(C)nn(C)c4C)cccc23)cc(C)c1Cl [Example 128, 3-((3-(3-(4-chloro-3,5-dimethylphenoxy)propyl)-2-methyl-7-(1,3,5-trimethyl-1H-pyrazol-4-yl)-1H-indol-1-yl)methyl)-N-(pyridin-4-ylsulfonyl)benzamide], the Ki was 101 to 299 nM. In the case of Cc1cc(OCCCc2c(C)n(CCC(=O)O)c3c(-c4c(C)nn(CCN5CCOCC5)c4C)c(Cl)ccc23)cc(C)c1Cl [Example 113, 3-(6-chloro-3-(3-(4-chloro-3,5-dimethylphenoxy)propyl)-7-(3,5-dimethyl-1-(2-morpholinoethyl)-1H-pyrazol-4-yl)-2-methyl-1H-indol-1-yl)propanoic acid], the Ki is reported as ≤ 100 nM. CCn1nc(C)c(-c2cccc3c(CCCOc4cc(C)c(Cl)c(C)c4)c(C)n(CCC(=O)NS(C)(=O)=O)c23)c1C [Example 86, 3-(3-(3-(4-chloro-3,5-dimethylphenoxy)propyl)-7-(1-ethyl-3,5-dimethyl-1H-pyrazol-4-yl)-2-methyl-1H-indol-1-yl)-N-(methylsulfonyl)propanamide] was tested, and the Ki was ≤ 100 nM. With Cc1cc(OCCCc2c(C)n(Cc3cccc(C(=O)O)c3)c3c(-c4c(C)nn(Cc5ccccn5)c4C)cccc23)cc(C)c1Cl [Example 111, 3-((3-(3-(4-chloro-3,5-dimethylphenoxy)propyl)-7-(3,5-dimethyl-1-(pyridin-2-ylmethyl)-1H-pyrazol-4-yl)-2-methyl-1H-indol-1-yl)methyl)benzoic acid] the Ki was ≤ 100 nM. Cc1cc(OCCCc2c(C)n(CCC(=O)NS(=O)(=O)c3cccnc3)c3c(-c4c(C)nn(C)c4C)cccc23)cc(C)c1Cl [Example 95, 3-(3-(3-(4-chloro-3,5-dimethylphenoxy)propyl)-2-methyl-7-(1,3,5-trimethyl-1H-pyrazol-4-yl)-1H-indol-1-yl)-N-(pyridin-3-ylsulfonyl)propanamide] was tested, and the Ki was ≤ 100 nM. In the case of Cc1cc(OCCCc2c(C)n(CCC(=O)O)c3c(-c4cccnc4C)cccc23)cc(C)c1Cl [Example 75, 3-(3-(3-(4-chloro-3,5-dimethylphenoxy)propyl)-2-methyl-7-(2-methylpyridin-3-yl)-1H-indol-1-yl)propanoic acid], the Ki is reported as ≤ 100 nM. Cc1cc(OCCCc2cn(CC(=O)O)c3ccccc23)cc(C)c1Cl [Example 5, 2-(3-(3-(4-chloro-3,5-dimethylphenoxy)propyl)-1H-indol-1-yl)acetic acid] gave a Ki of 501 to 999 nM. Cc1cc(OCCCc2c(C)n(CC(=O)O)c3c(-c4ccnn4C)cccc23)cc(C)c1Cl [Example 64, 2-(3-(3-(4-chloro-3,5-dimethylphenoxy)propyl)-2-methyl-7-(1-methyl-1H-pyrazol-5-yl)-1H-indol-1-yl)acetic acid] showed a Ki of 101 to 299 nM. With CCC(C(=O)NS(C)(=O)=O)n1cc(CCCOc2cc(C)c(Cl)c(C)c2)c2ccccc21 (racemic) [Example 60, (±)-2-(3-(3-(4-chloro-3,5-dimethylphenoxy)propyl)-1H-indol-1-yl)-N-(methylsulfonyl)butanamide] the Ki was 501 to 999 nM. In the case of Cc1cc(OCCCc2c(C)n(CC(=O)O)c3c(-c4cccn4C)cccc23)cc(C)c1Cl [Example 68, 2-(3-(3-(4-chloro-3,5-dimethylphenoxy)propyl)-2-methyl-7-(1-methyl-1H-pyrrol-2-yl)-1H-indol-1-yl)acetic acid], the Ki is reported as 101 to 299 nM. Molecule CCC(C(=O)O)n1cc(CCCOc2cc(C)c(Cl)c(C)c2)c2ccccc21 (racemic) [Example 52, (±)-2-(3-(3-(4-chloro-3,5-dimethylphenoxy)propyl)-1H-indol-1-yl)butanoic acid] has a Ki of 501 to 999 nM. In the case of Cc1cc(OCCCc2cn(C(C(=O)O)c3ccccc3)c3ccccc23)cc(C)c1Cl (racemic) [Example 53, (±)-2-(3-(3-(4-chloro-3,5-dimethylphenoxy)propyl)-1H-indol-1-yl)-2-phenylacetic acid], the Ki is reported as 501 to 999 nM. In the case of Cc1cc(OCCCc2c(C)n(Cc3ccc(C(=O)O)cn3)c3c(-c4c(C)nn(C)c4C)c(Cl)ccc23)cc(C)c1Cl [Example 134, 6-((6-chloro-3-(3-(4-chloro-3,5-dimethylphenoxy)propyl)-2-methyl-7-(1,3,5-trimethyl-1H-pyrazol-4-yl)-1H-indol-1-yl)methyl)nicotinic acid], the Ki is reported as ≤ 100 nM. With Cc1cc(OCCCc2c(C#N)n(CCC(=O)O)c3ccccc23)cc(C)c1Cl [Example 48, 3-(3-(3-(4-chloro-3,5-dimethylphenoxy)propyl)-2-cyano-1H-indol-1-yl)propanoic acid] the Ki was 501 to 999 nM. Cc1cc(OCCCc2c(C)n(CCC(=O)NS(=O)(=O)c3ccc4ccccc4c3)c3c(-c4c(C)nn(C)c4C)cccc23)cc(C)c1Cl [Example 89, 3-(3-(3-(4-chloro-3,5-dimethylphenoxy)propyl)-2-methyl-7-(1,3,5-trimethyl-1H-pyrazol-4-yl)-1H-indol-1-yl)-N-(naphthalen-2-ylsulfonyl)propanamide] was tested, and the Ki was ≤ 100 nM. Cc1cc(OCCn2cc(CC(=O)O)c3ccccc32)cc(C)c1Cl [Example 62, 2-(1-(2-(4-chloro-3,5-dimethylphenoxy)ethyl)-1H-indol-3-yl)acetic acid] gave a Ki of 1000 to 9990 nM. Work on Cc1cc(OCCCc2c(C)n(CCC(=O)O)c3c(-c4c(C)nn(Cc5ncccn5)c4C)cccc23)cc(C)c1Cl [Example 110, 3-(3-(3-(4-chloro-3,5-dimethylphenoxy)propyl)-7-(3,5-dimethyl-1-(pyrimidin-2-ylmethyl)-1H-pyrazol-4-yl)-2-methyl-1H-indol-1-yl)propanoic acid] yielded a Ki of 1000 to 9990 nM. Cc1cnccc1-c1cccc2c(CCCOc3cc(C)c(Cl)c(C)c3)c(C)n(CC(=O)O)c12 [Example 67] was tested, and the Ki was 101 to 299 nM. In the case of Cc1ccncc1-c1cccc2c(CCCOc3cc(C)c(Cl)c(C)c3)c(C)n(CCC(=O)NS(C)(=O)=O)c12 [Example 82, 3-(3-(3-(4-chloro-3,5-dimethylphenoxy)propyl)-2-methyl-7-(4-methylpyridin-3-yl)-1H-indol-1-yl)-N-(methylsulfonyl)propanamide], the Ki is reported as ≤ 100 nM. Work on O=C(O)Cc1cn(CCCOc2cccc3ccccc23)c2ccccc12 [Example 1, 2-(1-(3-(naphthalen-1-yloxy)propyl)-1H-indol-3-yl)acetic acid] yielded a Ki of 1000 to 9990 nM. Cc1cc(OCCCc2cn(CCC(=O)O)c3c(-c4cccnc4)cccc23)cc(C)c1Cl [Example 33, 3-(3-(3-(4-chloro-3,5-dimethylphenoxy)propyl)-7-(pyridin-3-yl)-1H-indol-1-yl)propanoic acid] showed a Ki of 501 to 999 nM. Cc1cc(OCCCc2cn(C(CC(=O)O)c3ccccc3)c3ccccc23)cc(C)c1Cl (racemic) [Example 56, (±)-3-(3-(3-(4-chloro-3,5-dimethylphenoxy)propyl)-1H-indol-1-yl)-3-phenylpropanoic acid] gave a Ki of 501 to 999 nM. In the case of Cc1cc(OCCCc2c(C)n(CCC(=O)NS(=O)(=O)Cc3ccccc3)c3c(-c4c(C)nn(C)c4C)cccc23)cc(C)c1Cl [Example 88, N-(benzylsulfonyl)-3-(3-(3-(4-chloro-3,5-dimethylphenoxy)propyl)-2-methyl-7-(1,3,5-trimethyl-1H-pyrazol-4-yl)-1H-indol-1-yl)propanamide], the Ki is reported as ≤ 100 nM. With Cc1cc(OCCCc2cn(CCC(=O)NS(=O)(=O)C3CC3)c3cc(Cl)ccc23)cc(C)c1Cl [Example 39, 3-(6-chloro-3-(3-(4-chloro-3,5-dimethylphenoxy)propyl)-1H-indol-1-yl)-N-(cyclopropylsulfonyl)propanamide] the Ki was 301 to 500 nM.
